Measurements from the supplement of paper PMC10307832.

These cell lines were tested with CC1(COc2ccc3c(c2)ncn3-c2ccc3cccc(N4CCC(N)CC4)c3n2)COC1 [Crenolanib] + Nc1nc2[nH]cc(CCc3ccc(C(=O)N[C@@H](CCC(=O)O)C(=O)O)cc3)c2c(=O)[nH]1 [Pemetrexed] (partner 0.2 µM) (assay: relative viability (nuclei count vs DMSO), 5 days (fraction); higher = more cells survive). Details: first compound 0.01 µM.
Summary of the method: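 Cells from lung cancer lines were seeded into 1536-well plates and, one day later, dosed by pin tool. Treatments were either a single drug or a fixed dose of an anchor drug with five library-drug doses (not always all listed) in √10 steps. After 5 days, nuclei were stained in a one-step fixation (final 0.05% Triton X-100, 1% formaldehyde, 1 ug/ml Hoechst) and counted on 4× images, and relative viability is the treated-to-vehicle nuclei ratio, as the median of duplicate plates.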

Cell Line | relative viability
NCI-H1755 | 0.468
NCI-H520 | 0.701
NCI-H2405 | 1.11
SW 1573 | 0.784
201T | 0.324
NCI-H1975 | 0.306
HOP-62 | 0.322
NCI-H2347 | 0.4
NCI-H1355 | 1.07
NCI-H650 | 1.03
CAL-12T | 1.28
NCI-H1666 | 0.886
H3255 | 0.597
NCI-H23 | 0.761
NCI-H1915 | 0.536
NCI-H1437 | 0.336
NCI-H322M | 0.597
HCC-366 | 0.179
PC-3 [JPC-3] | 1.11
EKVX | 0.413
LCLC-103H | 0.453
NCI-H1650 | 0.438
NCI-H1993 | 0.606
SK-LU-1 | 0.943
NCI-H661 | 0.959
RERF-LC-KJ | 0.474

Same assay, conditions: first compound 0.03162 µM

Cell Line | relative viability
HCC-827 | 0.277
NCI-H441 | 0.278
LOU-NH91 | 0.45
NCI-H2023 | 0.238
NCI-H460 | 0.067
NCI-H1755 | 0.43
NCI-H520 | 0.792
SW 1573 | 0.801
201T | 0.323
NCI-H1975 | 0.316
HOP-62 | 0.345
NCI-H2347 | 0.425
NCI-H1355 | 1.12
NCI-H650 | 1.01
CAL-12T | 1.27
NCI-H1666 | 0.855
H3255 | 0.563
NCI-H23 | 0.62
NCI-H1915 | 0.481
NCI-H1437 | 0.3
NCI-H322M | 0.583
NCI-H2085 | 0.88
HCC-366 | 0.161
EKVX | 0.423
LCLC-103H | 0.45
NCI-H1650 | 0.395
NCI-H1993 | 0.591
SK-LU-1 | 1.03
NCI-H661 | 0.903
RERF-LC-KJ | 0.516

Same assay, conditions: first compound 0.1 µM

Cell Line | relative viability
HCC-827 | 0.195
NCI-H441 | 0.269
LOU-NH91 | 0.353
NCI-H2023 | 0.231
A-427 | 0.99
NCI-H460 | 0.075
NCI-H1755 | 0.416
NCI-H520 | 0.628
NCI-H2405 | 0.869
SW 1573 | 0.719
201T | 0.34
NCI-H1975 | 0.289
HOP-62 | 0.373
NCI-H2347 | 0.397
NCI-H1355 | 0.947
NCI-H650 | 0.93
CAL-12T | 1.22

Cell Line | relative viability
NCI-H1666 | 0.855
H3255 | 0.544
NCI-H23 | 0.644
NCI-H1915 | 0.511
NCI-H1437 | 0.297
NCI-H322M | 0.631
NCI-H2085 | 0.878
HCC-366 | 0.171
PC-3 [JPC-3] | 1.01
EKVX | 0.401
LCLC-103H | 0.476
NCI-H1650 | 0.38
NCI-H1993 | 0.549
SK-LU-1 | 0.892
NCI-H661 | 0.925
RERF-LC-KJ | 0.457

Same assay, conditions: first compound 0.3162 µM

Cell Line | relative viability
HCC-827 | 0.26
NCI-H441 | 0.312
LOU-NH91 | 0.423
NCI-H2023 | 0.239
A-427 | 0.989
NCI-H460 | 0.0642
NCI-H1755 | 0.499
NCI-H520 | 0.684
NCI-H2405 | 1.11
SW 1573 | 0.942
201T | 0.322
NCI-H1975 | 0.284
HOP-62 | 0.362
NCI-H2347 | 0.447
NCI-H1355 | 1.13
NCI-H650 | 0.932
CAL-12T | 1.34

Cell Line | relative viability
NCI-H1666 | 0.921
H3255 | 0.553
NCI-H23 | 0.817
NCI-H1915 | 0.528
NCI-H1437 | 0.352
NCI-H322M | 0.6
NCI-H2085 | 0.936
HCC-366 | 0.181
PC-3 [JPC-3] | 1.21
EKVX | 0.379
LCLC-103H | 0.503
NCI-H1650 | 0.371
NCI-H1993 | 0.559
SK-LU-1 | 1.11
NCI-H661 | 0.966
RERF-LC-KJ | 0.479

Same assay, conditions: first compound 1 µM

Cell Line | relative viability
HCC-827 | 0.268
NCI-H441 | 0.273
LOU-NH91 | 0.383
NCI-H2023 | 0.234
A-427 | 0.834
NCI-H460 | 0.0669
NCI-H1755 | 0.453
NCI-H520 | 0.702
NCI-H2405 | 1.06
SW 1573 | 0.832
201T | 0.338
NCI-H1975 | 0.312
HOP-62 | 0.417
NCI-H2347 | 0.436
NCI-H1355 | 1.01
